Broadly, the IC50 is the point on the concentration scale where inhibition reaches its midpoint.

The target in the assay is T1, ASGPR (Mus musculus, UniProt P24721+P34927).
T1 construct: host or cells: murine hepatocytes (primary, plated)
T1 sequence (P34927 1-284): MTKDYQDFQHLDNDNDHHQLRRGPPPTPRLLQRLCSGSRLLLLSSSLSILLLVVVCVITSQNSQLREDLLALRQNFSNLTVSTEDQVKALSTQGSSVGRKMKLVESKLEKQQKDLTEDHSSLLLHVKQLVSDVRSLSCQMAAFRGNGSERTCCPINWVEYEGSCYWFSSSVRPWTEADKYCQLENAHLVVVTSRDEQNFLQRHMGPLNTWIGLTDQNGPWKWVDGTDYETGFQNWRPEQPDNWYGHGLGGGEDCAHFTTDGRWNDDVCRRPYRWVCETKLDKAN
T1 sequence (P24721 1-301): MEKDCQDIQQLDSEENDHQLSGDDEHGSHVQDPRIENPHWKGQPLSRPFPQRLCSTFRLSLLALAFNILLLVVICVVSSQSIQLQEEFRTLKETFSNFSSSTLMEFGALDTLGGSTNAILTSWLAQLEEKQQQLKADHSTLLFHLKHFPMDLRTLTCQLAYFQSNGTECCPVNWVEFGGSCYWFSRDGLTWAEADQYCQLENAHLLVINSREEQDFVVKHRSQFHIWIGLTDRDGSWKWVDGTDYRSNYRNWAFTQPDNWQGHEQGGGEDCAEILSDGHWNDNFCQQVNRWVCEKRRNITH
As to the kind of experiment: Binding strength of saccharide chain peptide and murine hepatocyte (competition with Eu-ASOR, time-resolved fluorescence). Particulars: for IC50: murine hepatocyte, Eu-ASOR 10 nM, 5 mM calcium chloride, 1 hr. The method, then: With Eu-asialo-orosomucoid (Eu-ASOR) as reference material, the binding strength of saccharide chain peptide and murine hepatocyte is determined by comparing whether the binding degree of saccharide chain peptides, such as DCM-Lys(ah-GalNAc)3, DCM-Lys(Gah-GalNAc)3, DCM-Lys(ah-Lac)3, AHA-Asp[DCM-Lys(ah-Lac)3]2 with murine hepatocyte is higher than that of Eu-ASOR or not, in which the binding degree is expressed by IC50 (concentration of 50% inhibition), and the lower the IC50 is, the higher the binding degree is. The murine hepatocyte (from Lonza Biotechnology Company, Maryland) is plated in a 24-well plate in advance, and the reaction occurs in each well, into which (i) Eu-ASOR 10 nM (ii) hepatocyte basic medium with 5 mM calcium chloride, and (iii) five different concentrations of saccharide chain peptide of 1 uM-0.8 nM are added. After culturing under shaking for 1 hr, the substance that has not been bound to hepatocyte is removed by washing with the hepatocyte basic medium containing calcium chloride. Time-resolved fluorescence spectroscopy is preformed, that is, an enhancement solution (15
uM β-naphthoyl trifluoroacetone, 50 uM tri-n-octyl-phosphine oxide, 0.1 M potassium hydrogen phthalate, 0.1% Triton X-100 in 0.1 M acetic acid, pH 3.2) is added. The enhancement solution reacts with Eu^3+ to form a Eu chelate, which can emit a light of 615 nm when being excited at 340 nm. With the logarithm of the concentration of saccharide chain peptide as X axis, the emitted fluorescence value as Y axis, the fluorescence value without adding glycopeptide being set as 100%, the IC50 of each saccharide chain peptide can be calculated accordingly.

Regarding `CC(=O)N[C@H]1[C@H](OCCCCCCNC(=O)CC[C@H](NC(=O)[C@H](CCC(=O)NCCCCCCO[C@@H]2O[C@H](CO)[C@H](O)[C@H](O)[C@H]2NC(C)=O)NC(=O)[C@@H](N)Cc2ccc(O)cc2)C(=O)NCCCCCCO[C@@H]2O[C@H](CO)[C@H](O)[C@H](O)[C@H]2NC(C)=O)O[C@H](CO)[C@H](O)[C@@H]1O` [YEE(ahGalNAc)3, reference compound], the IC50 turned out to be 10 nM. Regarding `CC(=O)N[C@H]1[C@H](OCCCCCCNC(=O)CNC(=O)CN(CC(=O)NCC(=O)NCCCCCCO[C@@H]2O[C@H](CO)[C@H](O)[C@H](O)[C@H]2NC(C)=O)[C@@H](CCCCN)C(=O)NCC(=O)NCCCCCCO[C@@H]2O[C@H](CO)[C@H](O)[C@H](O)[C@H]2NC(C)=O)O[C@H](CO)[C@H](O)[C@@H]1O` [DCM-Lys(GahGalNAc)3], the “binding with ASGPR relative to YEE or YDD” value (compared with YEE or YDD, from Table 1) turned out to be 10 times.

For the molecule `NCCCCCC(=O)N[C@@H](CC(=O)NCCCC[C@@H](C(=O)NCCCCCCOC1O[C@H](CO)[C@@H](O[C@@H]2O[C@H](CO)[C@H](O)[C@H](O)[C@H]2O)[C@H](O)[C@H]1O)N(CC(=O)NCCCCCCOC1O[C@H](CO)[C@@H](O[C@@H]2O[C@H](CO)[C@H](O)[C@H](O)[C@H]2O)[C@H](O)[C@H]1O)CC(=O)NCCCCCCOC1O[C@H](CO)[C@@H](O[C@@H]2O[C@H](CO)[C@H](O)[C@H](O)[C@H]2O)[C@H](O)[C@H]1O)C(=O)NCCCC[C@@H](C(=O)NCCCCCCOC1O[C@H](CO)[C@@H](O[C@@H]2O[C@H](CO)[C@H](O)[C@H](O)[C@H]2O)[C@H](O)[C@H]1O)N(CC(=O)NCCCCCCOC1O[C@H](CO)[C@@H](O[C@@H]2O[C@H](CO)[C@H](O)[C@H](O)[C@H]2O)[C@H](O)[C@H]1O)CC(=O)NCCCCCCOC1O[C@H](CO)[C@@H](O[C@@H]2O[C@H](CO)[C@H](O)[C@H](O)[C@H]2O)[C@H](O)[C@H]1O` (stereo partly drawn) [AHA-Asp[DCM-Lys(ahLac)3]2, AHA-Asp[DCM-Lys(ah-Lac)3]2], the IC50 was 10 nM.

For the origin of these results see US20110097264A1, “RADIOLABELING METHOD USING MULTIVALENT GLYCOLIGANDS AS HEPATIC RECEPTOR IMAGING AGENT” (Institute of Nuclear Energy Research Atomic Energy Council, …, priority 2009, published 2011).
